In patent publication US8658660B2, “5-fluoro-4-imino-3,4-dihydropyrimidin-2-(1H)-ones derivatives” (Dow AgroSciences, LLC., priority 2011, dated 2014):

Tests used:
[1] = test system: Mycosphaerella graminicola; anamorph: Septoria tritici (SEPTTR); assay: Evaluation of fungicidal activity: leaf blotch of wheat (SEPTTR); type: in vivo, Septoria tritici on wheat plants (variety Yuma); settings: wheat plants, percent control vs untreated inoculated plants
Method: Evaluation of Fungicidal Activity: Leaf Blotch of Wheat (Mycosphaerella graminicola; anamorph: Septoria tritici; Bayer code […]) Wheat plants (variety Yuma) were grown from seed in a greenhouse in 50% mineral soil/50% soil-less Metro mix until the first leaf was fully emerged, with 7-10 seedlings per pot. These plants were inoculated with an aqueous spore suspension of Septoria tritici either prior to or after fungicide treatments. After inoculation the plants were kept in 100% relative humidity (one day in a dark dew chamber followed by two to three days in a lighted dew chamber) to permit spores to germinate and infect the leaf. The plants were then transferred to a greenhouse for disease to develop. The following table presents the activity of typical compounds of the present disclosure when evaluated in these experiments. The effectiveness of the test compounds in controlling disease was determined by assessing the severity of disease on treated plants, then converting the severity to percent control based on the level of disease on untreated, inoculated plants.

[2] = test system: Venturia inaequalis (VENTIN); assay: Evaluation of fungicidal activity: apple scab (VENTIN); type: in vivo; settings: apple seedlings, percent control vs untreated inoculated plants
Method: Evaluation of Fungicidal Activity: Apple Scab (Venturia inaequalis; Bayer code […]) Apple seedlings (McIntosh or Golden Delicious) were grown in Metro mix and inoculated with a spore suspension containing 5×10^5 spore/ml. Plants were placed in a dew room for 24 hours with 100% relative humidity and then transferred to a greenhouse with a temperature of 18° C. for disease to develop. The following table presents the activity of typical compounds of the present disclosure when evaluated in these experiments. The effectiveness of the test compounds in controlling disease was determined by assessing the severity of disease on treated plants, then converting the severity to percent control based on the level of disease on untreated, inoculated plants.

Compound	SEPTTR 100 PPM 1DP (One-Day Protectant activity, % disease control rating) [1]	SEPTTR 100 PPM 3DC (Three-Day Curative activity, % disease control rating) [1]	VENTIN 100 PPM 1DP (One-Day Protectant activity, % disease control rating) [2]
N=c1c(F)c[nH]c(=O)n1Cc1cccs1 [Cmpd 2, 5-fluoro-4-imino-3-(thiophen-2-ylmethyl)-3,4-dihydropyrimidin-2(1H)-one]	B (51-75)	A (76-100)	–
[2H]C([2H])([2H])n1c(=O)[nH]cc(F)c1=N [Cmpd 3, 5-fluoro-4-imino-3-(trideuteriomethyl)-1H-pyrimidin-2-one]	D (0-25)	D (0-25)	–
Cn1c(=O)[nH]cc(F)c1=N [Cmpd 1, 5-fluoro-4-imino-3-methyl-3,4-dihydropyrimidin-2(1H)-one]	A (76-100)	A (76-100)	B (51-75)
